# In patent US6518243B1, “Desleucyl glycopeptide antibiotics and methods of making same” (Trustees of Princeton University, priority 1999, dated 2003):
# Legend:
# Assay in all cases: Zone of inhibition screen, 96 well agar array format
# Type in all cases: cell-based
# Set-up in all cases: scale not given here
# [1] = tested on: S. epidermidis (ATCC 12228); settings: zone of inhibition relative to 1 mg/ml stock solution of p-chlorobiphenylvancomycin
# Procedure, shortened: (§1)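 Panel screening of every compound against several bacterial strains, among them E. faecium ATCC 49624, was done in a 96-well agar array.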
# E. faecalis (CL 4877) = tested on: E. faecalis (CL 4877)
# Procedure, shortened: as §1
# S. aureus (ATCC 29213) = tested on: S. aureus (ATCC 29213)
# Procedure, shortened: as §1
# [2] = zone of inhibition relative to 1 mg/ml p-chlorobiphenylvancomycin
# [3] = zone of inhibition relative to 1 mg/ml stock solution of p-chlorobiphenylvancomycin
SMILES,"zone score, S. epidermidis ATCC 12228 [1]","zone score, E. faecalis CL 4877 (E. faecalis (CL 4877); [2])","zone score, S. aureus ATCC 29213 (S. aureus (ATCC 29213); [2])","zone score, E. faecalis CL 4877 (E. faecalis (CL 4877); [3])","zone score, S. aureus ATCC 29213 (S. aureus (ATCC 29213); [3])"
CC(=O)N1CCC(C(=O)NC2C(=O)NC(CC(N)=O)C(=O)NC3C(=O)NC4C(=O)NC(C(=O)NC(C(=O)O)c5cc(O)cc(O)c5-c5cc4ccc5O)C(O)c4ccc(c(Cl)c4)Oc4cc3cc(c4OC3OC(CO)C(O)C(O)C3OC3CC(C)(NCc4ccc(-c5ccc(Cl)cc5)cc4)C(O)C(C)O3)Oc3ccc(cc3Cl)C2O)CC1 (centres unmarked) [Compound 99],2,,,,
CC1OC(OC2C(Oc3c4cc5cc3Oc3ccc(cc3Cl)C(O)C3NC(=O)C(NC(=O)C5NC(=O)C(CC(N)=O)NC(=O)C(NC(=O)c5ccc(=O)[nH]n5)C(O)c5ccc(c(Cl)c5)O4)c4ccc(O)c(c4)-c4c(O)cc(O)cc4C(C(=O)O)NC3=O)OC(CO)C(O)C2O)CC(C)(NCc2ccc(-c3ccc(Cl)cc3)cc2)C1O (centres unmarked) [Compound 298],,2,2,,
CC1OC(OC2C(Oc3c4cc5cc3Oc3ccc(cc3Cl)C(O)C3NC(=O)C(NC(=O)C5NC(=O)C(CC(N)=O)NC(=O)C(NC(=O)CNC(=O)CNC(=O)OC(C)(C)C)C(O)c5ccc(c(Cl)c5)O4)c4ccc(O)c(c4)-c4c(O)cc(O)cc4C(C(=O)O)NC3=O)OC(CO)C(O)C2O)CC(C)(NCc2ccc(-c3ccc(Cl)cc3)cc2)C1O (centres unmarked) [Compound 223],,2,2,,
CC=C(N)C(=O)NC1C(=O)NC(CC(N)=O)C(=O)NC2C(=O)NC3C(=O)NC(C(=O)NC(C(=O)O)c4cc(O)cc(O)c4-c4cc3ccc4O)C(O)c3ccc(c(Cl)c3)Oc3cc2cc(c3OC2OC(CO)C(O)C(O)C2OC2CC(C)(NCc3ccc(-c4ccc(Cl)cc4)cc3)C(O)C(C)O2)Oc2ccc(cc2Cl)C1O (centres unmarked) [Compound 219],,2,2,,
CC1OC(OC2C(Oc3c4cc5cc3Oc3ccc(cc3Cl)C(O)C3NC(=O)C(NC(=O)C5NC(=O)C(CC(N)=O)NC(=O)C(NC(=O)COc5cc(Cl)c(Cl)cc5Cl)C(O)c5ccc(c(Cl)c5)O4)c4ccc(O)c(c4)-c4c(O)cc(O)cc4C(C(=O)O)NC3=O)OC(CO)C(O)C2O)CC(C)(NCc2ccc(-c3ccc(Cl)cc3)cc2)C1O (centres unmarked) [Compound 233],,2,2,,
CC1OC(OC2C(Oc3c4cc5cc3Oc3ccc(cc3Cl)C(O)C3NC(=O)C(NC(=O)C5NC(=O)C(CC(N)=O)NC(=O)C(NC(=O)CNC(=O)CNC(=O)CNC(=O)OC(C)(C)C)C(O)c5ccc(c(Cl)c5)O4)c4ccc(O)c(c4)-c4c(O)cc(O)cc4C(C(=O)O)NC3=O)OC(CO)C(O)C2O)CC(C)(NCc2ccc(-c3ccc(Cl)cc3)cc2)C1O (centres unmarked) [Compound 139],,,,2,2
CC1OC(OC2C(Oc3c4cc5cc3Oc3ccc(cc3Cl)C(O)C3NC(=O)C(NC(=O)C5NC(=O)C(CC(N)=O)NC(=O)C(NC(=O)C=CC(=O)NC(N)=O)C(O)c5ccc(c(Cl)c5)O4)c4ccc(O)c(c4)-c4c(O)cc(O)cc4C(C(=O)O)NC3=O)OC(CO)C(O)C2O)CC(C)(NCc2ccc(-c3ccc(Cl)cc3)cc2)C1O (centres unmarked) [Compound 189],,,,2,2
CC1OC(OC2C(Oc3c4cc5cc3Oc3ccc(cc3Cl)C(O)C3NC(=O)C(NC(=O)C5NC(=O)C(CC(N)=O)NC(=O)C(NC(=O)C(=O)NNC(=N)N)C(O)c5ccc(c(Cl)c5)O4)c4ccc(O)c(c4)-c4c(O)cc(O)cc4C(C(=O)O)NC3=O)OC(CO)C(O)C2O)CC(C)(NCc2ccc(-c3ccc(Cl)cc3)cc2)C1O (centres unmarked) [Compound 199],,,,2,2
CC(=O)Nc1ccc(C(=O)NC2C(=O)NC(CC(N)=O)C(=O)NC3C(=O)NC4C(=O)NC(C(=O)NC(C(=O)O)c5cc(O)cc(O)c5-c5cc4ccc5O)C(O)c4ccc(c(Cl)c4)Oc4cc3cc(c4OC3OC(CO)C(O)C(O)C3OC3CC(C)(NCc4ccc(-c5ccc(Cl)cc5)cc4)C(O)C(C)O3)Oc3ccc(cc3Cl)C2O)cc1NC(C)=O (centres unmarked) [Compound 104],,,,2,2
CC(=O)NCSCC(N)C(=O)NC1C(=O)NC(CC(N)=O)C(=O)NC2C(=O)NC3C(=O)NC(C(=O)NC(C(=O)O)c4cc(O)cc(O)c4-c4cc3ccc4O)C(O)c3ccc(c(Cl)c3)Oc3cc2cc(c3OC2OC(CO)C(O)C(O)C2OC2CC(C)(NCc3ccc(-c4ccc(Cl)cc4)cc3)C(O)C(C)O2)Oc2ccc(cc2Cl)C1O (centres unmarked) [Compound 49],,,,2,2
CC1OC(OC2C(Oc3c4cc5cc3Oc3ccc(cc3Cl)C(O)C(NC(=O)C(O)C(O)C(O)C(O)CO)C(=O)NC(CC(N)=O)C(=O)NC5C(=O)NC3C(=O)NC(C(=O)NC(C(=O)O)c5cc(O)cc(O)c5-c5cc3ccc5O)C(O)c3ccc(c(Cl)c3)O4)OC(CO)C(O)C2O)CC(C)(NCc2ccc(-c3ccc(Cl)cc3)cc2)C1O (centres unmarked) [Compound 157],,,,2,2
CC1OC(OC2C(Oc3c4cc5cc3Oc3ccc(cc3Cl)C(O)C3NC(=O)C(NC(=O)C5NC(=O)C(CC(N)=O)NC(=O)C(NC(=O)CNC(=O)CNC(=O)CNC(=O)CNC(=O)OCc5ccccc5)C(O)c5ccc(c(Cl)c5)O4)c4ccc(O)c(c4)-c4c(O)cc(O)cc4C(C(=O)O)NC3=O)OC(CO)C(O)C2O)CC(C)(NCc2ccc(-c3ccc(Cl)cc3)cc2)C1O (centres unmarked) [Compound 214],,2,2,,
CC1OC(OC2C(Oc3c4cc5cc3Oc3ccc(cc3Cl)[C@@H](O)[C@@H](NC(=O)[C@@H](CCCNC(=N)N)NC(N)=O)C(=O)N[C@@H](CC(N)=O)C(=O)N[C@H]5C(=O)NC3C(=O)N[C@H](C(=O)N[C@@H](C(=O)O)c5cc(O)cc(O)c5-c5cc3ccc5O)[C@H](O)c3ccc(c(Cl)c3)O4)OC(CO)C(O)C2O)CC(C)(NCc2ccc(-c3ccc(Cl)cc3)cc2)C1O (some centres unmarked) [Compound 187],,,,2,2
CC(NC(=O)OC(C)(C)C)C(=O)NCC(=O)NCC(=O)NC1C(=O)NC(CC(N)=O)C(=O)NC2C(=O)NC3C(=O)NC(C(=O)NC(C(=O)O)c4cc(O)cc(O)c4-c4cc3ccc4O)C(O)c3ccc(c(Cl)c3)Oc3cc2cc(c3OC2OC(CO)C(O)C(O)C2OC2CC(C)(NCc3ccc(-c4ccc(Cl)cc4)cc3)C(O)C(C)O2)Oc2ccc(cc2Cl)C1O (centres unmarked) [Compound 131],,,,2,2
CC1OC(OC2C(Oc3c4cc5cc3Oc3ccc(cc3Cl)C(O)C3NC(=O)C(NC(=O)C5NC(=O)C(CC(N)=O)NC(=O)C(NC(=O)c5cccnc5Sc5ccc(Cl)cc5)C(O)c5ccc(c(Cl)c5)O4)c4ccc(O)c(c4)-c4c(O)cc(O)cc4C(C(=O)O)NC3=O)OC(CO)C(O)C2O)CC(C)(NCc2ccc(-c3ccc(Cl)cc3)cc2)C1O (centres unmarked) [Compound 230],,2,2,,
C[C@H]1O[C@H](O[C@H]2[C@H](Oc3c4cc5cc3Oc3ccc(cc3Cl)[C@@H](O)[C@@H](NC(=O)c3nc(N)n[nH]3)C(=O)N[C@@H](CC(N)=O)C(=O)N[C@H]5C(=O)N[C@H]3C(=O)N[C@H](C(=O)N[C@@H](C(=O)O)c5cc(O)cc(O)c5-c5cc3ccc5O)[C@H](O)c3ccc(c(Cl)c3)O4)O[C@H](CO)[C@@H](O)[C@@H]2O)C[C@@](C)(NCc2ccc(-c3ccc(Cl)cc3)cc2)[C@H]1O [Compound 256],,2,2,,
CC(NC(=O)OC(C)(C)C)C(=O)NCC(=O)N(C)CC(=O)NC1C(=O)NC(CC(N)=O)C(=O)NC2C(=O)NC3C(=O)NC(C(=O)NC(C(=O)O)c4cc(O)cc(O)c4-c4cc3ccc4O)C(O)c3ccc(c(Cl)c3)Oc3cc2cc(c3OC2OC(CO)C(O)C(O)C2OC2CC(C)(NCc3ccc(-c4ccc(Cl)cc4)cc3)C(O)C(C)O2)Oc2ccc(cc2Cl)C1O (centres unmarked) [Compound 132],,,,2,2
CC(=O)N1CC(O)CC1C(=O)NC1C(=O)NC(CC(N)=O)C(=O)NC2C(=O)NC3C(=O)NC(C(=O)NC(C(=O)O)c4cc(O)cc(O)c4-c4cc3ccc4O)C(O)c3ccc(c(Cl)c3)Oc3cc2cc(c3OC2OC(CO)C(O)C(O)C2OC2CC(C)(NCc3ccc(-c4ccc(Cl)cc4)cc3)C(O)C(C)O2)Oc2ccc(cc2Cl)C1O (centres unmarked) [Compound 121],,,,2,2
CC(NC=O)C(=O)NC1C(=O)NC(CC(N)=O)C(=O)NC2C(=O)NC3C(=O)NC(C(=O)NC(C(=O)O)c4cc(O)cc(O)c4-c4cc3ccc4O)C(O)c3ccc(c(Cl)c3)Oc3cc2cc(c3OC2OC(CO)C(O)C(O)C2OC2CC(C)(NCc3ccc(-c4ccc(Cl)cc4)cc3)C(O)C(C)O2)Oc2ccc(cc2Cl)C1O (centres unmarked) [Compound 194],,,,2,2
CC(=O)NC(C)C(=O)NC1C(=O)NC(CC(N)=O)C(=O)NC2C(=O)NC3C(=O)NC(C(=O)NC(C(=O)O)c4cc(O)cc(O)c4-c4cc3ccc4O)C(O)c3ccc(c(Cl)c3)Oc3cc2cc(c3OC2OC(CO)C(O)C(O)C2OC2CC(C)(NCc3ccc(-c4ccc(Cl)cc4)cc3)C(O)C(C)O2)Oc2ccc(cc2Cl)C1O (centres unmarked) [Compound 110],,,,2,2
CC1OC(OC2C(Oc3c4cc5cc3Oc3ccc(cc3Cl)C(O)C3NC(=O)C(NC(=O)C5NC(=O)C(CC(N)=O)NC(=O)C(NC(=O)CCC(NC(=O)OC(C)(C)C)C(N)=O)C(O)c5ccc(c(Cl)c5)O4)c4ccc(O)c(c4)-c4c(O)cc(O)cc4C(C(=O)O)NC3=O)OC(CO)C(O)C2O)CC(C)(NCc2ccc(-c3ccc(Cl)cc3)cc2)C1O (centres unmarked) [Compound 137],,,,2,2
